Experimental data reported in patent US10854312B2, “Selective peptide antagonists” (BIONIZ, LLC, priority 2013, dated 2020).
“Also recorded” adds a separate entry of the source. No end group written: not given here.

Key:
human IL-21 = assay: PT-18 h21Rα survival assay (apoptosis by Annexin V staining), IL-21; type: cell-based; settings: hIL-21Rα-transfected PT-18 cells, 1 nM human IL-21, 5 μM BNZ132-1, PE-Annexin V flow cytometry
Method: FIG. 6A-FIG. 6E presents inhibitory spectrum of BNZ132-1 over γc- and non-γc-cytokines. […] Neutralizing antibodies against each cytokine (R & D systems, 5 μg ml^−1) were included as controls. After 20 h, the cells were pulsed with WST-1 (Clontech) and OD450 of each well was measured after 6 h. A 19-mer scrambled peptide was used as a negative control at 5 μM. The experiments were conducted in triplicate (applies to all experiments in FIG. 6A-FIG. 6E). The result represents one of at least three independent experiments (applies to all experiments in FIG. 6A-FIG. 6E). […] In PT-18 proliferation assay, PT-18β or PT-18h21Rα cells were withdrawn of mouse IL-3 for 12 h before the experiment. Cells were then incubated with 1 nM of mouse IL-4, mouse IL-9, or mouse IL-21 in the presence or absence of the indicated doses (μM) of BNZ132-1. Neutralizing antibodies to each cytokine (5 μg ml^−1, except for anti-mouse IL-21 polyclonal antibody which was used at 15 μg ml−1) and a scrambled control peptide (5 μM) were included as negative controls. WST-1 assay was conducted as described above. […] In PT-18 h21Rα survival assay, PT-18h21Rα cells are described in the text. […] Both parental and hIL-21Rα positive PT-18 cells were washed and incubated without IL-3 for 12 h before the assay. […] The Y-axis represents the cpm (count per minute) values measured by a β-counter. […]

HAM/TSP T cells = assay: Spontaneous ex vivo proliferation of HAM/TSP patient lymphocytes (thymidine incorporation); type: cell-based, human; settings: 5 days culture without exogenous cytokines; BNZ132-1 1 μM or 3 and 0.3 μM; mABs 5 mg/ml each
Method: FIG. 7A, and FIG. 7B present effective inhibition of a combined function of target γc-cytokines by BNZ132-1. […] Human Peripheral T cells were prepared as described in the methodology section. Four hundred thousand cells (in 200 μl culture) were incubated with the cytokines and BNZ132-1 at the indicated concentrations for 24 h, and cellular proliferation was determined by the […] using the WST-1 reagent (Clontech). The Y-axis represents the OD450 values. The p values; 1 nM cytokine combination-No inhibition vs. anti-IL-2; 0.33, No inhibition vs. anti-IL-15; 0.13, No inhibition vs. anti IL-2+IL-15; 0.003. No inhibition vs. BNZ132-1; 0.021. 0.1 nM cytokine combination-No inhibition vs. anti-IL-2; 0.046, No inhibition vs. anti-IL-15; 0.057, No inhibition vs. anti IL-2+IL-15; 0.001, No inhibition vs. anti IL-2+15; 0.001, No inhibition vs.BNZ132-1; 0.001. The assay was performed in triplicate. […] Peripheral blood mononuclear cells were purified from the blood of a HAM-TSP patient and set up for a spontaneous proliferation assay as previously described36. The cellular proliferation was measured by the thymidine incorporation assay. The Y-axis represents the cpm values. Doses are on the X-axis; BNZ132-1, 3 and 0.3 μM. Antibodies against IL-2 or IL-15 (1 and 10 μg ml-1 of each, R & D Systems). […]

IKEFLQRFIHIVQSIINTS [BNZ132-1]
inhibition of IL-21-mediated protection from apoptotic death after IL-3 withdrawal (human IL-21): did not counteract the effect of IL-21; also recorded: not inhibited; also recorded: no inhibition of IL-21 | inhibition of spontaneous ex vivo proliferation of HAM/TSP T cells (HAM/TSP T cells): as effective inhibition as combined anti-IL-2 and anti-IL-15 mABs; also recorded: Efficient inhibition
